Results from patent publication US20220280589A1, “METHOD FOR TREATING ALZHEIMER'S DISEASE BY REGULATING AMINO ACID LEVEL” (SHANGHAI GREEN VALLEY PHARMACEUTICAL CO., LTD., priority 2019, published 2022).
“Also recorded” adds a separate entry of the source.

Key:
[1] = test system: 5XFAD transgenic (Tg) mice; test: Flow cytometry of brain homogenate immune cells (Th1, M1 microglia); assay type: in vivo, mouse; conditions: 6-month-old 5XFAD mice, 50 mg/kg intraperitoneal injection every day for one month, versus vehicle
Method: Tg mice and co-housed WT mice (corresponding WT mice generated by mating Tg mice and C57 mice) were housed in the same cage after birth. WT mice (C57) were housed in separate cages to avoid cross-transfer of microbiota. All mice were kept in a 23° C. room with a 12-hour (h) light-dark cycle. Mice were randomly assigned to different groups before treatment. For time course analysis of Tg mice, male and female Tg mice were sacrificed at 2, 3, 5, 7 and 9 months of age. The mouse brain was collected and stained for immune cell analysis and cytokine analysis. […] The brains and feces of the mice were then used for different analyses.
Mice were anesthetized, blood samples were collected into EDTA-containing tubes, and red blood cells were removed using 1×red blood lysis buffer. Before tissue collection, the brains were perfused with ice-cold PBS to avoid sampling the circulating blood immune cells, and the brains were removed, chopped into pieces and dissected according to the introduction of the Adult Brain Dissociation Kit (Miltenyi, Cat No. 130-107-677) using the gentleMACS dissociator (Miltenyi Biotec). The brain homogenate was filtered through a 70-μm cell strainer and centrifuged at 300×g for 5 min at 4° C. […] All samples were counted and adjusted to a density of 2-3×10^6/100 μL, labeled with a Live/Dead kit for 30 min, and then centrifuged at 500×g for 3 min at 4° C. […]

SLC7A5 = target: T1, SLC7A5 (Mus musculus, UniProt Q9Z127); test: Uptake of ^13C-labeled phenylalanine by CD4^+ T cells; assay type: cell-based; conditions: ^13C-phenylalanine 5 mmol/L, 0.5 h
T1 construct: endogenous in cells; host or cells: Primary CD4+ T cells (naive/Th0 and IL-12-induced Th1) from splenocytes of C57BL/6 mice
Method: (k) The uptake of phenylalanine by the naïve CD4 T cells. The naïve CD4 T cells were cultured with/without ^13C-labeled phenylalanine for 0.5 h. Mass Spectrometry of phenylalanine-related compounds were tested. ^13C-Phenylalanine is administered at a concentration of 5 mmol/L, and is taken up by an L-type amino acid transporter.
Naive CD4^+ T cells were separated from the splenocytes of 8-month-old C57BL/6 female mice using the Naive CD4^+ T cell Isolation Kit (Stem Cell, Cat No. 19765) and were induced to Th1 differentiation by 20 ng/mL IL-12. After 3 days, a total of 5 ×10^5 cells/well Th1 cells and Th0 cells in 0.5 mL of RPMI-1640 medium were plated into 48-well plates. ^13C-labeled phenylalanine and 5 mM amino transporter inhibitor BCH were added into indicated wells. After 0.5 h, cells were collected and washed twice with ice-cold D-PBS. 50 μL deionized water was added and cells were lysed through freezing and thawing twice at −80° C. The cell lysate was centrifuged at 12000×g for 10 min and ^13 C-labeled phenylalanine in the supernatant was analyzed by Mass spectrometry.

naive CD4^+ T cells = test: In vitro differentiation and proliferation induced by phenylalanine and isoleucine; assay type: cell-based, mouse; conditions: 3 days; for Th1 cell proliferation: amino acid (1 mM) added to CellTrace-stained naive CD4^+ T cell culture; for Th0 cell differentiation into Th1 cells: amino acid (1 mM) added to naive CD4^+ T cell culture
Method: (e) The effects of OM1 on the differentiation of naive CD4^+ T cells (Th0 cells) to Th1 cells induced by phenylalanine and isoleucine. Naive CD4^+ T cells were cultured for 3 days with/without OM1 in the presence of phenylalanine (1 mM) or isoleucine (1 mM). The frequency of Th1 (CD4^+IFN-γ^+) cells was tested by flow cytometry. The data are presented as mean±standard error of the mean (mean±sem); n=3 replicates per group. Left, *P<0.05, **P<0.01 by one-way ANOVA (F (2, 6)=15.64). Right, *P<0.05, **P<0.01 by one-way ANOVA (F (2, 6)=10.35).
(f) The effects of OM1 on the proliferation of Th1 cells induced by phenylalanine and isoleucine. The naive CD4^+ T cells were stained with CellTrace and cultured for 3 days with/without OM1 in the presence of phenylalanine (1 mM) and isoleucine (1 mM). The density of CellTrace fluorescence in Th1 (CD4^+IFN-γ^+) cells was tested by flow cytometry (see Methods). The data are presented as mean±standard error of the mean (mean±sem), n=3. *P<0.05, ***P<0.001 by one-way ANOVA (F (4, 9)=28.34).
Naive CD4^+ T cells were separated from the splenocytes of 8-month-old C57BL/6 female mice using the Naive CD4^+ T cell Isolation Kit (Stem Cell, #19765), and the cells were stained with CellTrace (Thermo Fisher, #C34557). A total of 1×10^5 cells/well in 0.2 mL of RPMI-1640 medium were plated in 96-well plates, and the culture medium was supplemented with cytokines or blocking antibodies. Th0: 10 ng/mL mIL-2; Th1:10 ng/mL mIL-2, 5000 ng/mL 11B11. Phenylalanine (final concentration, 2 mmol/L), isoleucine (final concentration, 2 mmol/L) and OM1 (final concentration, 100 μg/mL) were added into the indicated wells, respectively. After incubation at 37° C. in 5% CO2 for 5 days, cells were acquired on a BD Fortessa cytometer, and data were analyzed using FlowJo software.

C57 mice = test: Intraperitoneal injection of phenylalanine and isoleucine, blood Th1 cells by flow cytometry; assay type: in vivo, mouse; conditions: WT (C57) mice, intraperitoneal injection 50 mg/kg for 4 days
Method: (g) Blood Th1 cell changes after 4-day intraperitoneal (i.p.) injection of phenylalanine and isoleucine (n=6). ***P<0.001 by one-way ANOVA (F (2, 21)=101.8).
Tg mice and co-housed WT mice (corresponding WT mice generated by mating Tg mice and C57 mice) were housed in the same cage after birth. WT mice (C57) were housed in separate cages to avoid cross-transfer of microbiota. All mice were kept in a 23° C. room with a 12-hour (h) light-dark cycle. Mice were randomly assigned to different groups before treatment. For time course analysis of Tg mice, male and female Tg mice were sacrificed at 2, 3, 5, 7 and 9 months of age. The mouse brain was collected and stained for immune cell analysis and cytokine analysis. Before the mice were sacrificed, feces were collected for gut microbiota analysis. […] All mouse movements that occur in PhenoTyper (HomeCage) are recorded by a computerized tracking system, which calculates the time and number of entrances required to reach 80% of the performance standard (Noldus, Ethovision). […]
Mice were anesthetized, blood samples were collected into EDTA-containing tubes, and red blood cells were removed using 1×red blood lysis buffer. […] All samples were counted and adjusted to a density of 2-3×10^6/100 μL, labeled with a Live/Dead kit for 30 min, and then centrifuged at 500×g for 3 min at 4° C. […]

T1 sequence (Q9Z127 whole entry): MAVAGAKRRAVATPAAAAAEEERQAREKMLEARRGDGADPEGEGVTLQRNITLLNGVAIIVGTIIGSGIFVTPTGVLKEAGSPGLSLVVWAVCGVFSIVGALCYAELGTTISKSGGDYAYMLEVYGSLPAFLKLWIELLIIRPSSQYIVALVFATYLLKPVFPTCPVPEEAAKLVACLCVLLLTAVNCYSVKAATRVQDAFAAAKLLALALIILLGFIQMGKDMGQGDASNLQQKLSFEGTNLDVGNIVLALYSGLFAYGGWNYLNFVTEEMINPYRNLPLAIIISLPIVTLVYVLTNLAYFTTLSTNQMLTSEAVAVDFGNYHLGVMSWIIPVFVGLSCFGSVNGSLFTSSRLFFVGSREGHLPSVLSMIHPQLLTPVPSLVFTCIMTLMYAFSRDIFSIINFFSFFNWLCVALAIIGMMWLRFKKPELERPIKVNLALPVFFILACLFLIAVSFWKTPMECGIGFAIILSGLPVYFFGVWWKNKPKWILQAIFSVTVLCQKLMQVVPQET
T1 sequence (P10852 whole entry partner): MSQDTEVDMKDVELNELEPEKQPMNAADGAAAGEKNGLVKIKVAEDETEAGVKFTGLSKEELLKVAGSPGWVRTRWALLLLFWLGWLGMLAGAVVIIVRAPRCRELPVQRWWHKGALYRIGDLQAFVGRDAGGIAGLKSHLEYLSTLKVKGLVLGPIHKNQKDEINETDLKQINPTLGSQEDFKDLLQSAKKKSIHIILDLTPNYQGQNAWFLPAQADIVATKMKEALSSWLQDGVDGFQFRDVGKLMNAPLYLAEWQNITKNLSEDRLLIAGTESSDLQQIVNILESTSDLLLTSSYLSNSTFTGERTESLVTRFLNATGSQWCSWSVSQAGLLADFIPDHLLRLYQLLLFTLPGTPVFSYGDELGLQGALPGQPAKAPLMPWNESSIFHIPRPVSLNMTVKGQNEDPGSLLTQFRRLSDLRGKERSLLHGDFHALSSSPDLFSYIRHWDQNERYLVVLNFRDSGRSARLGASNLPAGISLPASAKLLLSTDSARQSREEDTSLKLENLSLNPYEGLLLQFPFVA

uptake of ^13C-labeled phenylalanine by CD4^+ T cells (SLC7A5) | Structure (SMILES) | proportion of pro-inflammatory Th1 cells in the brain [1] | Th1 cell proliferation (naive CD4^+ T cells) | Th0 cell differentiation into Th1 cells (naive CD4^+ T cells) | Th1 cell count in the blood (C57 mice)
blocked | Nc1cc(COc2c(Cl)cc(C[C@H](N)C(=O)O)cc2Cl)c2oc(-c3ccccc3)nc2c1 [JPH203] | effectively inhibits the proportion of Th1 cells in the brain; also recorded: significantly downregulated the proportion of pro-inflammatory Th1 cells in the mouse brain |  |  | 
 | CC[C@H](C)[C@H](N)C(=O)O [isoleucine] |  | increased | increased | increased significantly
 | N[C@@H](Cc1ccccc1)C(=O)O [phenylalanine] |  | increased | increased | increased significantly
